Test results from the supplement of paper PMC10307832.

Key:
Test in all cases: relative viability (nuclei count vs DMSO), 5 days (fraction); higher = more cells survive
NCI-H596 = test system: NCI-H596
Summary of the method: (§1)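 Five library-drug doses in √10 steps were combined with a fixed anchor-drug dose, or a single drug was given alone, by pin tool to lung cancer cell lines in 1536-well plates the day after seeding. Nuclei were stained and counted after 5 days. Relative viability is the nuclei count in treated wells over that in vehicle wells, taken as the median of duplicate plates.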

NCI-H1755 = test system: NCI-H1755
Summary of the method: as §1

LK-2 = test system: LK-2
Summary of the method: as §1

NCI-H520 = test system: NCI-H520
Summary of the method: as §1

EMC-BAC-2 = test system: EMC-BAC-2
Summary of the method: as §1

A-427 = test system: A-427
Summary of the method: as §1

NCI-H23 = test system: NCI-H23
Summary of the method: as §1

PC-3 [JPC-3] = test system: PC-3 [JPC-3]
Summary of the method: as §1

SK-MES-1 = test system: SK-MES-1
Summary of the method: as §1

EKVX = test system: EKVX
Summary of the method: as §1

H3255 = test system: H3255
Summary of the method: as §1

NCI-H1975 = test system: NCI-H1975
Summary of the method: as §1

LOU-NH91 = test system: LOU-NH91
Summary of the method: as §1

NCI-H1734 = test system: NCI-H1734
Summary of the method: as §1

NCI-H2170 = test system: NCI-H2170
Summary of the method: as §1

NCI-H1666 = test system: NCI-H1666
Summary of the method: as §1

HCC-366 = test system: HCC-366
Summary of the method: as §1

COR-L 105 = test system: COR-L 105
Summary of the method: as §1

NCI-H1563 = test system: NCI-H1563
Summary of the method: as §1

Which relative viability (NCI-H596; first compound 0.08 µM) does the source give for `COc1nc(C)cnc1NS(=O)(=O)c1cccnc1-c1ccc(-c2nnco2)cc1` [Zibotentan] + CS(=O)(=O)CCNCc1ccc(-c2ccc3ncnc(Nc4ccc(OCc5cccc(F)c5)c(Cl)c4)c3c2)o1 [Lapatinib] (partner 2 µM) here?
Its relative viability is 1.03.

And the relative viability (NCI-H596; first compound 0.253 µM)?
Its relative viability is 1.12.

And the relative viability (NCI-H596; first compound 0.8 µM)?
The relative viability was 1.08.

And the relative viability (NCI-H596; first compound 2.53 µM)?
The relative viability was 1.08.

What about the relative viability (NCI-H1755; first compound 0.08 µM) of the same compound?
Its relative viability is 1.06.

And the relative viability (NCI-H1755; first compound 0.253 µM)?
Its relative viability is 0.988.

What about the relative viability (NCI-H1755; first compound 0.8 µM) of the same compound?
The relative viability was 1.08.

And the relative viability (NCI-H1755; first compound 2.53 µM)?
The relative viability was 1.05.

What about the relative viability (LK-2; first compound 0.08 µM) of the same compound?
The relative viability was 1.02.

And the relative viability (LK-2; first compound 0.253 µM)?
The relative viability was 0.885.

What about the relative viability (LK-2; first compound 0.8 µM) of the same compound?
The relative viability was 0.917.

What about the relative viability (LK-2; first compound 2.53 µM) of the same compound?
The relative viability was 0.986.

And the relative viability (NCI-H520; first compound 0.08 µM)?
The relative viability was 0.885.

And the relative viability (NCI-H520; first compound 0.253 µM)?
Its relative viability is 0.809.

What about the relative viability (NCI-H520; first compound 0.8 µM) of the same compound?
Its relative viability is 0.853.

What about the relative viability (NCI-H520; first compound 2.53 µM) of the same compound?
Its relative viability is 0.927.

And the relative viability (EMC-BAC-2; first compound 0.08 µM)?
The relative viability was 0.958.

And the relative viability (EMC-BAC-2; first compound 0.253 µM)?
The relative viability was 0.805.

What about the relative viability (EMC-BAC-2; first compound 0.8 µM) of the same compound?
Its relative viability is 0.873.

What about the relative viability (EMC-BAC-2; first compound 2.53 µM) of the same compound?
Its relative viability is 0.858.

What about the relative viability (A-427; first compound 0.08 µM) of the same compound?
The relative viability was 1.08.

What about the relative viability (A-427; first compound 0.253 µM) of the same compound?
The relative viability was 1.06.

And the relative viability (A-427; first compound 0.8 µM)?
Its relative viability is 1.05.

And the relative viability (A-427; first compound 2.53 µM)?
The relative viability was 0.984.

And the relative viability (NCI-H23; first compound 0.08 µM)?
The relative viability was 1.22.

And the relative viability (NCI-H23; first compound 0.253 µM)?
The relative viability was 0.987.

And the relative viability (NCI-H23; first compound 0.8 µM)?
Its relative viability is 1.19.

What about the relative viability (NCI-H23; first compound 2.53 µM) of the same compound?
Its relative viability is 1.26.

And the relative viability (PC-3 [JPC-3]; first compound 0.08 µM)?
The relative viability was 0.444.

And the relative viability (PC-3 [JPC-3]; first compound 0.253 µM)?
The relative viability was 0.458.

What about the relative viability (PC-3 [JPC-3]; first compound 0.8 µM) of the same compound?
Its relative viability is 0.421.

What about the relative viability (PC-3 [JPC-3]; first compound 2.53 µM) of the same compound?
Its relative viability is 0.48.

What about the relative viability (SK-MES-1; first compound 0.08 µM) of the same compound?
The relative viability was 0.505.

And the relative viability (SK-MES-1; first compound 0.253 µM)?
Its relative viability is 0.453.

What about the relative viability (SK-MES-1; first compound 0.8 µM) of the same compound?
Its relative viability is 0.498.

What about the relative viability (SK-MES-1; first compound 2.53 µM) of the same compound?
The relative viability was 0.509.

What about the relative viability (EKVX; first compound 0.08 µM) of the same compound?
The relative viability was 0.184.

What about the relative viability (EKVX; first compound 0.253 µM) of the same compound?
Its relative viability is 0.216.

What about the relative viability (EKVX; first compound 0.8 µM) of the same compound?
Its relative viability is 0.194.

And the relative viability (EKVX; first compound 2.53 µM)?
Its relative viability is 0.198.

And the relative viability (H3255; first compound 0.08 µM)?
Its relative viability is 0.271.

And the relative viability (H3255; first compound 0.253 µM)?
Its relative viability is 0.255.

What about the relative viability (H3255; first compound 0.8 µM) of the same compound?
The relative viability was 0.281.

And the relative viability (H3255; first compound 2.53 µM)?
Its relative viability is 0.239.

What about the relative viability (NCI-H1975; first compound 0.08 µM) of the same compound?
The relative viability was 0.837.

What about the relative viability (NCI-H1975; first compound 0.253 µM) of the same compound?
Its relative viability is 0.8.

What about the relative viability (NCI-H1975; first compound 0.8 µM) of the same compound?
Its relative viability is 0.781.

And the relative viability (NCI-H1975; first compound 2.53 µM)?
The relative viability was 0.884.

What about the relative viability (LOU-NH91; first compound 0.08 µM) of the same compound?
The relative viability was 0.835.

What about the relative viability (LOU-NH91; first compound 0.253 µM) of the same compound?
Its relative viability is 0.662.

What about the relative viability (LOU-NH91; first compound 0.8 µM) of the same compound?
The relative viability was 0.771.

And the relative viability (LOU-NH91; first compound 2.53 µM)?
The relative viability was 0.782.

What about the relative viability (NCI-H1734; first compound 0.08 µM) of the same compound?
Its relative viability is 1.2.

What about the relative viability (NCI-H1734; first compound 0.253 µM) of the same compound?
Its relative viability is 1.04.

And the relative viability (NCI-H1734; first compound 0.8 µM)?
Its relative viability is 0.996.

And the relative viability (NCI-H1734; first compound 2.53 µM)?
The relative viability was 1.19.

And the relative viability (NCI-H2170; first compound 0.08 µM)?
The relative viability was 0.27.

What about the relative viability (NCI-H2170; first compound 0.253 µM) of the same compound?
The relative viability was 0.264.

And the relative viability (NCI-H2170; first compound 0.8 µM)?
Its relative viability is 0.251.

What about the relative viability (NCI-H2170; first compound 2.53 µM) of the same compound?
Its relative viability is 0.285.

What about the relative viability (NCI-H1666; first compound 0.08 µM) of the same compound?
Its relative viability is 0.63.

What about the relative viability (NCI-H1666; first compound 0.253 µM) of the same compound?
Its relative viability is 0.435.

What about the relative viability (NCI-H1666; first compound 0.8 µM) of the same compound?
Its relative viability is 0.495.

What about the relative viability (NCI-H1666; first compound 2.53 µM) of the same compound?
The relative viability was 0.688.

And the relative viability (HCC-366; first compound 0.08 µM)?
Its relative viability is 1.17.

What about the relative viability (HCC-366; first compound 0.253 µM) of the same compound?
Its relative viability is 0.955.

And the relative viability (HCC-366; first compound 0.8 µM)?
Its relative viability is 0.653.

And the relative viability (HCC-366; first compound 2.53 µM)?
The relative viability was 1.02.

And the relative viability (COR-L 105; first compound 0.08 µM)?
Its relative viability is 0.394.

And the relative viability (COR-L 105; first compound 0.253 µM)?
The relative viability was 0.35.

And the relative viability (COR-L 105; first compound 0.8 µM)?
Its relative viability is 0.394.

What about the relative viability (COR-L 105; first compound 2.53 µM) of the same compound?
Its relative viability is 0.4.

And the relative viability (NCI-H1563; first compound 0.08 µM)?
Its relative viability is 0.993.

And the relative viability (NCI-H1563; first compound 0.253 µM)?
Its relative viability is 0.535.

What about the relative viability (NCI-H1563; first compound 0.8 µM) of the same compound?
The relative viability was 0.905.

What about the relative viability (NCI-H1563; first compound 2.53 µM) of the same compound?
Its relative viability is 0.958.
